Earlier results as cited in US7232830B2, “Method for treatment of neurodegenerative diseases and effects of aging” (priority 1998, dated 2007).
Counter-ions that a name gives are not always drawn.

How the values were obtained:
[1] = system: histamine metabolism in the mouse brain
MAO-B = target: T1, MAO-B (Rattus norvegicus, UniProt P19643); conditions: in vitro, rat brain
T1 construct: in vitro on monoamine oxidase activity in the rat brain; host or cells: rat brain
T1 sequence (P19643 1-520): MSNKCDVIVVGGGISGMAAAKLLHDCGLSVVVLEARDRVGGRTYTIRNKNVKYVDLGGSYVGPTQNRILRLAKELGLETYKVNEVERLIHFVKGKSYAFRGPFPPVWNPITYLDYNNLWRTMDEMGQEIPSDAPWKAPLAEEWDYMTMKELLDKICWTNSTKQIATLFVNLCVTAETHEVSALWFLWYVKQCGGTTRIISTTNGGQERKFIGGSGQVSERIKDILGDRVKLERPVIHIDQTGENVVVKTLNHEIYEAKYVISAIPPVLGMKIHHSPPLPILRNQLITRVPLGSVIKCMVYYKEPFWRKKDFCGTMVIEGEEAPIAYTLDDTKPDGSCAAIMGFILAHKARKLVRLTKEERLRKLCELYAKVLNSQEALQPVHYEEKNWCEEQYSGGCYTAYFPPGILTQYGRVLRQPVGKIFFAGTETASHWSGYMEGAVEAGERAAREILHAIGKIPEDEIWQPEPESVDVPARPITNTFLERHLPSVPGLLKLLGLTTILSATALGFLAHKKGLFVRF

effect on a histidine decarboxylase inhibitor [1]	effect on histamine increase induced by a histamine N-methyltransferase inhibitor [1]	Structure (SMILES)	effect on MAO-B (MAO-B)
no significant affect	inhibited the histamine increase	COC(=O)[C@H]1[C@H]2C[C@@H]3c4[nH]c5cc(OC)ccc5c4CCN3C[C@H]2C[C@@H](OC(=O)c2cc(OC)c(OC)c(OC)c2)[C@@H]1OC [reserpine]	–
–	–	S=C(NC1CCCCC1)N1CCC(c2cnc[nH]2)CC1 [thioperamide maleate]	inhibits MAO-B
